In patent publication US20250134878A1, “COMBINATION OF CHEK1 INHIBITOR AND TOP1 INHIBITOR FOR TREATING COLORECTAL CANCER” (Genome Research Limited, priority 2022, published 2025):
Several values for one entry are separate records, joined by “and”; a condition that tells them apart may be missing. Equal entries are not always repeated. Where two headings read alike, the source gives them in different places. One block for each compound: values may come before it.

How the values were obtained:
LoVo cells = conditions: cited from earlier work
HT-29 cells = conditions: cited from earlier work
[1] = test system: SW620, SW837, SNU-81 or LS-1034 cells; assay: CHEK specificity: camptothecin anchor plus CHEK inhibitor libraries, CellTiter-Glo viability after 96 h; format: cell-based; conditions: in combination with camptothecin (anchor, 0.025 µM), 4 cell lines
Description: After 96 h of drug treatment viability was measured with CellTiter-Glo® 2.0 (CTG; Promega). Drug response curves were fitted and combination response metrics ΔEmax and ΔIC50 calculated by comparing the observed combination response with the expected (Bliss) combination response. The higher the ΔEmax and ΔIC50, the stronger the combination response. SW620, SW837, SNU-81 and LS-1034 are all MSS and KRAS-TP53 double mutant colon cancer cell lines.

[2] = test system: colon cancer cell lines (CL-11, SNU-81 and SW837); assay: 7x7 matrix combination screen with SN-38, CellTiter-Glo 72 h, Bliss window and HSA window; format: cell-based; conditions: MSS and KRAS/TP53 double mutant cell lines
Description: Viability was measured after 72 h of drug treatment using CellTiter-Glo reagent. Single-agent and combination viability measurements were fitted per cell line and multiple parameters derived including single agent values and a range of synergy scores. […] The “Bliss window” was reported as the highest mean Bliss excess value measured across the 25 possible 3×3 submatrices, or ‘windows’, across the 7×7 dose matrix. […] The “HSA window” was reported as the highest mean HSA excess value measured across the 25 possible 3×3 submatrices, or ‘windows’, across the 7×7 dose matrix.

[3] = Phase 1 clinical trials; cited from earlier work
[4] = test system: colon (n=45) cancer cell lines; assay: anchored 2x7 combination screen, viability by CellTiter-Glo after 72 h, synergy over Bliss
Description: To screen efficiently, the inventors used a 2×7 concentration matrix, or “anchored” approach. The inventors screened each anchor compound at two optimised concentrations and a discontinuous 1,000-fold (7-point) dose-response curve of the library compound. Viability was read out after 72 h of drug treatment using CellTiter-Glo and drug responses for single agent and combination responses were fitted.
The synergy and activity rate also subset to MSS (n=30) and MSI (n=15), or KRAS mut (n=24) and KRAS wt (n=21) cell lines.
Activity in MSI (n=15) and MSS (n=30) cell lines was compared (FIG. 1a). KRAS mutant (n=24) cell lines were investigated (n=8, TP53 wild type; n=16 TP53 mutant) (FIG. 1b). […] Plotted are averaged combination responses. Box and whisker plots show the median and interquartile range. A two-sided Welch's t-test was performed (*=p≤0.05, **=p≤0.01, ***=p≤0.001, ****=p≤0.0001).
Viability was read out after 72 h of drug treatment using CellTiter-Glo and drug responses for single agent and combination responses were fitted.

[5] = molecular target: ataxia telangiectasia and Rad3 related (ATR) kinase (Homo sapiens, UniProt Q13535); conditions: cited from earlier work
Chain of ataxia telangiectasia and Rad3 related (ATR) kinase (Q13535 whole entry): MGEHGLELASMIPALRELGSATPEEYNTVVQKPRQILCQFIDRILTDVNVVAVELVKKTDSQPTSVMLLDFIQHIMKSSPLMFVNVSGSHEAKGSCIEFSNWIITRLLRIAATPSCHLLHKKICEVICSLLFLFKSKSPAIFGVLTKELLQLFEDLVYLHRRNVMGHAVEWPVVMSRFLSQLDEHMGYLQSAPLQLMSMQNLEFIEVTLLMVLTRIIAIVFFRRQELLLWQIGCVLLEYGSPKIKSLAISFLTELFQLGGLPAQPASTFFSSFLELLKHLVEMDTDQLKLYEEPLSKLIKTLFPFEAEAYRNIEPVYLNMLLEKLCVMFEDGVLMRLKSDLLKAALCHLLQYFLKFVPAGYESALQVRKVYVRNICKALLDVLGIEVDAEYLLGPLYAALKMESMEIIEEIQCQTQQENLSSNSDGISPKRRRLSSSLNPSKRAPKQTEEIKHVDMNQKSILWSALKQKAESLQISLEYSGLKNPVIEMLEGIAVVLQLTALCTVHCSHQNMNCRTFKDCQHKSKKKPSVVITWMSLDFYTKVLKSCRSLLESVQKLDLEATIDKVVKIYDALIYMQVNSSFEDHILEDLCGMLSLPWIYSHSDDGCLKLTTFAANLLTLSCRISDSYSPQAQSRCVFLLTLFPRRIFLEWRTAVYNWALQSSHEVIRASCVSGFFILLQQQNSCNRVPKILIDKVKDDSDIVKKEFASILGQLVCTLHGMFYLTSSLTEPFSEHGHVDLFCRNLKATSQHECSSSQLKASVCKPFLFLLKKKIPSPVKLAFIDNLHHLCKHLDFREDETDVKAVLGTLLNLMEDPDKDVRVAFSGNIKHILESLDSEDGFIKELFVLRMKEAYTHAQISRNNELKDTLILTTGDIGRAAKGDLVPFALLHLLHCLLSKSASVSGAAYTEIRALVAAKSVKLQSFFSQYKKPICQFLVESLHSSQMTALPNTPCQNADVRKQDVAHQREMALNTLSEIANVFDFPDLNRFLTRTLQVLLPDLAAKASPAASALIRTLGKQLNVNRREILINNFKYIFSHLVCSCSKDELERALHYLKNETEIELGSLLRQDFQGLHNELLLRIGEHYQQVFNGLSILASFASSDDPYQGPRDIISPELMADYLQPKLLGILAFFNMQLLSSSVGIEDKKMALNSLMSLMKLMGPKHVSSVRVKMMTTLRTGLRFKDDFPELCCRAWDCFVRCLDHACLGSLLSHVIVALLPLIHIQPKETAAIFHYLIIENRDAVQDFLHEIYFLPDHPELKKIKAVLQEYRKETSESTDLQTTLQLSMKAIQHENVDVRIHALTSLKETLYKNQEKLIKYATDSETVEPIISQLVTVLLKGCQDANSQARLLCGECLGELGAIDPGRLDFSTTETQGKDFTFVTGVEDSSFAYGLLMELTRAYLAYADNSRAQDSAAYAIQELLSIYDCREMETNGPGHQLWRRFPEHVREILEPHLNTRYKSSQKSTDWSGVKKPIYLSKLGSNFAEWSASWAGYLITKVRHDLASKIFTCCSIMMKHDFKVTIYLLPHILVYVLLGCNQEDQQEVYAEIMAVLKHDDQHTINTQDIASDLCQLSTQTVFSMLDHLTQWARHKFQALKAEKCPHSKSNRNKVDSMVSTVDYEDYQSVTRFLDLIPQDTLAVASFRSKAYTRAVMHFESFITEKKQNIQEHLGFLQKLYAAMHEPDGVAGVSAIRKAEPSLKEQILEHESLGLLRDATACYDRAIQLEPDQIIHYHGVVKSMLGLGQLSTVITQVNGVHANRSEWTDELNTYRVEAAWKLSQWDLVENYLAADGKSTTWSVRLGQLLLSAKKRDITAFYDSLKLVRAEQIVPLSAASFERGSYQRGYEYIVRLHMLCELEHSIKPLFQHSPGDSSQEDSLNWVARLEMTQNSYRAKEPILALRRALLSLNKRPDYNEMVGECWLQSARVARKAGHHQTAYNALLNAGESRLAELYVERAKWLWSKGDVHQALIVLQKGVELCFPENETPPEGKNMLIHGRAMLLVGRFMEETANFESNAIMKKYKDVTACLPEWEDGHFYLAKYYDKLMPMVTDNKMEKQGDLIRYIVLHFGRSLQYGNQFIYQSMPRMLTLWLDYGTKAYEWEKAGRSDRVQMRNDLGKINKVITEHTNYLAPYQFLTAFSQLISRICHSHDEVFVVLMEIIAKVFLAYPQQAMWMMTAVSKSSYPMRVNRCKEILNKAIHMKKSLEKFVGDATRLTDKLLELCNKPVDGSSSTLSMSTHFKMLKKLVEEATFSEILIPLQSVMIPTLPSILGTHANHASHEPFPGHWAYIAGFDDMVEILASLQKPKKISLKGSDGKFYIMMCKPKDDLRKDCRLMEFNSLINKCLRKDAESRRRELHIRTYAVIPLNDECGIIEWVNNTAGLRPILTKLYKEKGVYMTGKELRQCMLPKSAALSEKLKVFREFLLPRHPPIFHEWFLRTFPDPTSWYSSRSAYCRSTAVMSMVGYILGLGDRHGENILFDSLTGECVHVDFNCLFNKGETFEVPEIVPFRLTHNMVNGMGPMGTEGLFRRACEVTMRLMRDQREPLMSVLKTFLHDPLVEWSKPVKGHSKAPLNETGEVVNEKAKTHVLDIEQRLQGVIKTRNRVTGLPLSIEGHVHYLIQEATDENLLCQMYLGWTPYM
Chain of ataxia telangiectasia and Rad3 related (ATR) kinase (Q8WXE1 whole entry partner): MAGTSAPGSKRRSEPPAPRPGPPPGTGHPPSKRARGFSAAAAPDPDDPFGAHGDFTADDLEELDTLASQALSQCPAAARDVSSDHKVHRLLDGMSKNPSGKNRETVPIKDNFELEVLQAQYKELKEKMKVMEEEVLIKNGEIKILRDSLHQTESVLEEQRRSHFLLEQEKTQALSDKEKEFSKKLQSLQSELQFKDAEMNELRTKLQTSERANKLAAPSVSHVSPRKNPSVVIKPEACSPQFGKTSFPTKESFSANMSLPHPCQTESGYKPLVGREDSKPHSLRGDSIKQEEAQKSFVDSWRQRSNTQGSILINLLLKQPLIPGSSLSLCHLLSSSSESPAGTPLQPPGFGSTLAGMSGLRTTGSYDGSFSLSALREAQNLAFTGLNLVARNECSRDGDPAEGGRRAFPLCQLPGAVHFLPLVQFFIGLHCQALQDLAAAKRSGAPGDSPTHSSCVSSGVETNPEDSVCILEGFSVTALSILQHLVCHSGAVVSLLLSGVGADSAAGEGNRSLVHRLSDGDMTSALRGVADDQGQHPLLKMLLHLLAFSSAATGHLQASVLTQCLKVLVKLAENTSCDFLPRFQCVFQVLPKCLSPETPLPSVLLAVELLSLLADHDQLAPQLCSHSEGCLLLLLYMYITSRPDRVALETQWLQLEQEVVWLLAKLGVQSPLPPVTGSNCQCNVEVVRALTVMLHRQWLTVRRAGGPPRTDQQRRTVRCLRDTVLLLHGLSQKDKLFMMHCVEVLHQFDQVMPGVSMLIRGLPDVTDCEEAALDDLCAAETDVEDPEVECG

[6] = test system: ATR-driven phosphorylated CHEK1 (P-CHEK1) phosphorylation; conditions: cell-free assay; cited from earlier work
SNU-81 cells = assay: SN-38 dose response after siRNA transfection, viability (CTG); format: cell-based; conditions: for IC50: SN-38 added after 30 h, viability 72 h later
Description: (§1) For siRNA experiments, SW837 and SNU-81 cells (8,000 and 16,000 cells per well, respectively) were reverse transfected with siRNAs of a non-targeting pool as negative control (siNT; Dharmacon, D-001810-10-5), polo-like kinase 1 (PLK1) pool as positive control (Dharmacon, L-003290-00-0010), CHEK1 pool (Dharmacon, L-003255-00-0005) or four individual CHEK1 siRNAs (LQ-003255-00-0005), and CHEK2 pool (Dharmacon, L-003256-00-0005) using lipofectamine RNAiMax (Thermofisher). After 30 h, 0.025 µM or a dose range of 0.001-9 µM SN-38 or DMSO were added and viability was measured 72 h later with CTG. Signal was normalised to siNT+DMSO controls. […] FIGS. 4a and 4c confirm that the effect of the TOP1+CHEK combination is primarily mediated through inhibition of CHEK1.
(§2) SW837 and SNU-81 cells (8,000 and 16,000 cells per well, respectively) were reverse transfected with siRNAs of a non-targeting pool as negative control (siNT; Dharmacon, D-001810-10-5), CHEK1 pool (Dharmacon, L-003255-00-0005) or CHEK2 pool (Dharmacon, L-003256-00-0005) using lipofectamine RNAiMax (Thermofisher). After 30 h, a dose range of 0.001-9 µM SN-38 or DMSO were added and viability was measured 72 h later with CTG. Signal was normalised to siNT+DMSO controls. Mean±SD of three independent replicates.

SW837 cells = assay: as above; format: cell-based; conditions: for IC50: SN-38 added after 30 h, viability 72 h later
Description: as §1, §2

CHEK1 = molecular target: T1, CHEK1 (Homo sapiens, UniProt O14757); conditions: assay format not stated; read-out: IC50 (CHEK1 inhibitor); cited from earlier work
T1 sequence (O14757 1-476): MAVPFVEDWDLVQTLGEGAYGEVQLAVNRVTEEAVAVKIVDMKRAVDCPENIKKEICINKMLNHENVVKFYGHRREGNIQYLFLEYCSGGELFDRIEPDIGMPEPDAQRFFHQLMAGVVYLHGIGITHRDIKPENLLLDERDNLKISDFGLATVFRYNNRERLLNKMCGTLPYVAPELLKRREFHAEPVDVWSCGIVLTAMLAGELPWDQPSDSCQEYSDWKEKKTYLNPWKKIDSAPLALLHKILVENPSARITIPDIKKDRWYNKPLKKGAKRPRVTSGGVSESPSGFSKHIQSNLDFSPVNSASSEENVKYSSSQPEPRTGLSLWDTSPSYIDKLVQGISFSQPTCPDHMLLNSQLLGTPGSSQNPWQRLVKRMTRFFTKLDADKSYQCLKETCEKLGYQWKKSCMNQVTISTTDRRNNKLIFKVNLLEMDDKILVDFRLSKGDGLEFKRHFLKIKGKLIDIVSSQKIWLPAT

Structure (SMILES): CCc1c2c(nc3ccc(OC(=O)N4CCC(N5CCCCC5)CC4)cc13)-c1cc3c(c(=O)n1C2)COC(=O)[C@]3(O)CC [Irinotecan, [(19S)-10,19-diethyl-19-hydroxy-14,18-dioxo-17-oxa-3,13-diazapentacyclo[11.8.0.0^2.11.0^4.9.0^15,20]henicosa-1 (21),2,4(9),5,7,10,15(20)-heptaen-7-yl] 4-(1-piperidyl) piperidine-1-carboxylate]
IC50 (LoVo cells): 15800 nM | IC50 (HT-29 cells): 5170 nM

Structure (SMILES): COc1cc2nc(-c3cc(F)ccc3O)nc(N[C@@H]3CNC[C@H]3C(C)(C)O)c2cc1OC [CCT241533]
median ΔEmax (shift in efficacy over Bliss) [1]: did not

Structure (SMILES): Cn1cc(-c2cnn3c(N)c(Br)c([C@@H]4CCCNC4)nc23)cn1 [MK-8776, 6-bromo-3-(1-methyl-1H-pyrazol-4-yl)-5-[(3R)-piperidin-3-yl]pyrazolo[1,5-a]pyrimidin-7-amine]
synergy (Bliss window and HSA window) in combination with SN-38 [2]: high

Structure (SMILES): Cc1cnc(NC(=O)Nc2cc(Br)c(C)cc2OC[C@@H]2CNCCO2)cn1 [rabusertib, 1-[5-bromo-4-methyl-2-[[(2S)-morpholin-2-yl]methoxy]phenyl]-3-(5-methylpyrazin-2-yl) urea]
synergy (Bliss window and HSA window) in combination with SN-38 [2]: high | safety profile [3]: acceptable safety profile

Structure (SMILES): NC(=O)Nc1cc(-c2cccc(F)c2)sc1C(=O)N[C@H]1CCCNC1 [AZD7762, (S)-5-(3-Fluorophenyl)-N-(piperidin-3-yl)-3-ureidothiophene-2-carboxamide]
synergy and activity rate in combination with 5-FU (DNA antimetab.) ([4]; AZD7762 = Anchor): 26% | synergy and activity rate in combination with Oxaliplatin (DNA alkyl.) ([4]; AZD7762 = Anchor): 0% | synergy and activity rate in combination with Vinorelbine (Microtub.) ([4]; AZD7762 = Anchor): 0% | synergy and activity rate in combination with 5-FU (DNA antimetab.) ([4]; AZD7762 = Library): 28% | synergy and activity rate in combination with Oxaliplatin (DNA alkyl.) ([4]; AZD7762 = Library): 2% | synergy and activity rate in combination with Vinorelbine (Microtub.) ([4]; AZD7762 = Library): 4%

Structure (SMILES): C[C@H](CN(C)C)Oc1nc(Nc2cc3cccc(Cl)c3cn2)cnc1C#N [SAR-020106, 5-(8-chloroisoquinolin-3-ylamino)-3-((R)-1-(dimethylamino)propan-2-yloxy) pyrazine-2-carbonitrile]
synergy (Bliss window and HSA window) in combination with SN-38 [2]: high

Structure (SMILES): COc1cccc(OCCCN)c1-c1cc(Nc2cnc(C#N)cn2)n[nH]1 [Prexasertib, 5-[[5-[2-(3-aminopropoxy)-6-methoxyphenyl]-1H-pyrazol-3-yl]amino]pyrazine-2-carbonitrile]
synergy (Bliss window and HSA window) in combination with SN-38 [2]: high

Structure (SMILES): Nc1nn2cc(F)cnc2c1C(=O)Nc1cncc(F)c1N1CCC(C(=O)N2CCN(C3COC3)CC2)CC1 [VX-803, 2-amino-6-fluoro-N-[5-fluoro-4-[4-[4-(oxetan-3-yl)piperazine-1-carbonyl]-1-piperidyl]-3-pyridyl]pyrazolo[1,5-a]pyrimidine-3-carboxamide]
Ki ATR kinase [5]: < 0.15 nM | IC50 [6]: 8 nM

IC50 (SNU-81 cells; CHEK1 siRNA pool, read-out: IC50 in SNU-81, siCHEK1): 84.4 nM and 84 nM | IC50 (SNU-81 cells; CHEK2 siRNA pool, read-out: IC50 in SNU-81, siCHEK2): 715 nM | shift in IC50 of SN-38 on addition of siCHEK1 (SNU-81 cells; SNU-81, siCHEK1 vs siNT): 7.2 fold | IC50 (SNU-81 cells; non-targeting siRNA pool, read-out: IC50 in SNU-81, siNT): 611 nM | IC50 (SW837 cells; CHEK1 siRNA pool, read-out: IC50 in SW837, siCHEK1): 0.7 nM | IC50 (SW837 cells; CHEK2 siRNA pool, read-out: IC50 in SW837, siCHEK2): 67 nM | IC50 (SW837 cells; Homo sapiens, SW837, CHEK1 siRNA pool, read-out: IC50 in SW837, siCHEK1): 0.69 nM | IC50 (SW837 cells; Homo sapiens, SW837, CHEK2 siRNA pool, read-out: IC50 in SW837, siCHEK2): 66.6 nM | IC50 (SW837 cells; Homo sapiens, SW837, non-targeting siRNA pool, read-out: IC50 in SW837, siNT): 84.4 nM | shift in IC50 of SN-38 on addition of siCHEK1 (SW837 cells; SW837, siCHEK1 vs siNT): 120 fold | IC50 (SW837 cells; non-targeting siRNA pool, read-out: IC50 in SW837, siNT): 84 nM
Structure (SMILES): CCc1c2c(nc3ccc(O)cc13)-c1cc3c(c(=O)n1C2)COC(=O)[C@]3(O)CC [SN-38, (19S)-10,19-diethyl-7,19-dihydroxy-17-oxa-3,13-diazapentacyclo[11.8.0.0^2.11.0^4.9.0^15,20]henicosa-1(21),2,4(9),5,7,10,15(20)-heptaene-14,18-dione]

Structure (SMILES): N[C@@H]1CCCN(c2c(Br)cnc3[nH]cc(NC(=O)C4CC4)c23)C1 [GDC-0575, N-[4-[(3R)-3-amino-1-piperidyl]-5-bromo-1H-pyrrolo[2,3-b]pyridin-3-yl]cyclopropanecarboxamide]
IC50 (CHEK1): 1.2 nM
